Measured values taken from PMC10649961, “Novel Mitochondria-Targeted Amphiphilic Aminophosphonium Salts and Lipids Nanoparticles: Synthesis, Antitumor Activity and Toxicity” (Nanomaterials, 2023).
Like-named read-outs stand apart in the source and are kept apart here.

Key:
[1] = system: MCF-7; settings: calculated relative to the cell line Chang liver (b)
[2] = system: Escherichia coli ATCC 25922; experiment: Antimicrobial activity, serial microdilutions, Ec; assay type: cell-based; parameters: key to Minimum Inhibitory Concentration (MIC) / Minimum bactericidal and fungicidal concentrations (MBC, MFC): – means non-active; settings: for MBC: ATCC25922, read-out: Minimum bactericidal and fungicidal concentrations (MBC, MFC)
Method in brief: (§1)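 Yeast was cultured in Sabouraud broth and bacteria in Mueller-Hinton broth while compounds were tested by serial microdilution. The methicillin-resistant isolate (MRSA-1) originated from chronic tonsillitis; replicates n=3.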

[3] = system: PANC-1; experiment: cells; settings: Homo sapiens, PANC-1, 48 h, read-out: Cytotoxic Effects (IC50)
[4] = system: HuTu 80; experiment: cells; settings: Homo sapiens, HuTu80, 48 h, read-out: Cytotoxic Effects (IC50)
[5] = system: DU-145; experiment: cells; settings: Homo sapiens, DU-145, 48 h, read-out: Cytotoxic Effects (IC50), DU-145, MTT assay, 48 h
[6] = system: Hep G2; settings: calculated relative to the cell line Chang liver (b)
[7] = system: PC3
[8] = system: Hep G2; experiment: cells; settings: Homo sapiens, HepG2, 48 h, read-out: Cytotoxic Effects (IC50)
[9] = system: MRSA-2; experiment: Antimicrobial activity, serial microdilutions, MRSA-2; assay type: cell-based, S. aureus; settings: Staphylococcus aureus; for MIC: read-out: Minimum Inhibitory Concentration (MIC); for MBC: read-out: Minimum bactericidal and fungicidal concentrations (MBC, MFC)
Method in brief: (§2)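 Compounds were serially diluted in broth: Mueller-Hinton for the bacterial strains, Sabouraud for the yeast. Each determination was done in triplicate.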

[10] = system: M-HeLa; settings: calculated relative to the cell line Chang liver (b)
[11] = system: A549; experiment: cells; settings: Homo sapiens, A549, 48 h, read-out: Cytotoxic Effects (IC50)
[12] = system: T98G; experiment: cells; settings: Homo sapiens, 48 h, read-out: Cytotoxic Effects (IC50)
[13] = system: Pseudomonas aeruginosa ATCC 9027; experiment: Antimicrobial activity, serial microdilutions, Pa; assay type: cell-based; parameters: key to Minimum Inhibitory Concentration (MIC) / Minimum bactericidal and fungicidal concentrations (MBC, MFC): – means non-active; settings: for MIC: ATCC9027, read-out: Minimum Inhibitory Concentration (MIC)
Method in brief: as §1

[14] = system: SK-OV-3; experiment: cells; settings: Homo sapiens, SK-OV-3, 48 h, read-out: Cytotoxic Effects (IC50)
[15] = system: HuTu 80; settings: calculated relative to the cell line Chang liver (b)
[16] = system: Bacillus cereus ATCC 10702 NCTC 8035; experiment: Antimicrobial activity, serial microdilutions, Bc; assay type: cell-based; parameters: key to Minimum bactericidal and fungicidal concentrations (MBC, MFC): – means non-active; settings: for MIC / Minimum bactericidal and fungicidal concentrations (MBC, MFC): Bc; for MIC: read-out: Minimum Inhibitory Concentration (MIC)
Method in brief: as §1

[17] = system: M-HeLa; experiment: cells; settings: Homo sapiens, 48 h, read-out: Cytotoxic Effects (IC50)
[18] = system: A549; settings: reference normal cell line not marked at the place (ns cells)
[19] = system: MRSA-1; experiment: Antimicrobial activity, serial microdilutions, MRSA-1; assay type: cell-based, S. aureus; settings: Staphylococcus aureus; for MIC: read-out: Minimum Inhibitory Concentration (MIC); for MBC: read-out: Minimum bactericidal and fungicidal concentrations (MBC, MFC)
Method in brief: as §1

[20] = system: PANC-1; settings: calculated relative to the cell line Chang liver (b)
[21] = system: Staphylococcus aureus ATCC 6538 P FDA 209P; experiment: Antimicrobial activity, serial microdilutions, Sa; assay type: cell-based; settings: Staphylococcus aureus; for MIC: read-out: Minimum Inhibitory Concentration (MIC); for MBC: read-out: Minimum bactericidal and fungicidal concentrations (MBC, MFC)
Method in brief: as §2

[22] = system: Candida albicans ATCC 10231; experiment: Antimicrobial activity, serial microdilutions, Ca; assay type: cell-based; parameters: key to Minimum Inhibitory Concentration (MIC) / Minimum bactericidal and fungicidal concentrations (MBC, MFC): – means non-active; settings: for Minimum Inhibitory Concentration (MIC) / Minimum bactericidal and fungicidal concentrations (MBC, MFC): Ca
Method in brief: as §1

[23] = system: Enterococcus faecalis ATCC 29212; experiment: Antimicrobial activity, serial microdilutions, Ef; assay type: cell-based; parameters: key to Minimum Inhibitory Concentration (MIC) / Minimum bactericidal and fungicidal concentrations (MBC, MFC): – means non-active; settings: for MIC: ATCC29212, read-out: Minimum Inhibitory Concentration (MIC)
Method in brief: as §2

[24] = system: SK-OV-3
[25] = system: T98G
[26] = system: DU-145
[27] = system: MCF-7; experiment: cells; settings: Homo sapiens, MCF7, 48 h, read-out: Cytotoxic Effects (IC50)
[28] = reference normal cell line not marked at the place (ns cells)
[29] = calculated relative to the cell line Chang liver (b)

## CCCCCCCC[P+](N(CC)CC)(N(CC)CC)N(CC)CC [4b, Tris(diethylamino)(octyl)phosphonium iodide]
[1]
  selectivity index (SI): 1.4
[2]
  Minimum Inhibitory Concentration (MIC): –
  Minimum bactericidal and fungicidal concentrations (MBC, MFC): –
[3]
  IC50: 2.3 ± 0.1 µM
[4]
  IC50: 3.2 ± 0.2 µM
[5]
  IC50: 4.2 ± 0.3 µM
[6]
  selectivity index (SI): 1.4
[7]; [28]
  selectivity index (SI): ns (ns—no selectivity)
[8]
  IC50: 2.9 ± 0.2 µM
[9]
  MIC: 15.6 ± 1.2 µM
  MBC: 125 ± 9 µM
[10]
  selectivity index (SI): 2.2
[11]
  IC50: 15.4 ± 1.2 µM
[12]
  IC50: 5.9 ± 0.4 µM
[13]
  Minimum Inhibitory Concentration (MIC): –
  Minimum bactericidal and fungicidal concentrations (MBC, MFC): –
[14]
  IC50: 26.3 ± 1.8 µM
[15]
  selectivity index (SI): 1.3
[16]; Bacillus cereus
  MIC: 7.8 ± 0.7 µM
[16]
  Minimum bactericidal and fungicidal concentrations (MBC, MFC): –
[17]
  IC50: 1.8 ± 0.1 µM
[18]
  selectivity index (SI): ns (ns—no selectivity)
[19]
  MIC: 15.6 ± 0.3 µM
  MBC: 500 ± 47 µM
[20]
  selectivity index (SI): 1.7
[21]
  MIC: 15.6 ± 1.3 µM
  MBC: 31.3 ± 2.3 µM
[22]
  Minimum Inhibitory Concentration (MIC): –
  Minimum bactericidal and fungicidal concentrations (MBC, MFC): –
[23]
  Minimum bactericidal and fungicidal concentrations (MBC, MFC): –
[23]; Enterococcus faecalis
  MIC: 250 ± 19 µM
[24]; [28]
  selectivity index (SI): ns (ns—no selectivity)
[25]; [28]
  selectivity index (SI): ns (ns—no selectivity)
[26]; [28]
  selectivity index (SI): ns (ns—no selectivity)
[27]
  IC50: 2.9 ± 0.2 µM

## CCCCCCCCCC[P+](N(CC)CC)(N(CC)CC)N(CC)CC [4d, Decyltris(diethylamino)phosphonium iodide]
[1]
  selectivity index (SI): 5.7
[2]; Escherichia coli, ATCC25922, read-out: Minimum Inhibitory Concentration (MIC)
  MIC: 125 ± 9 µM
[2]; Escherichia coli
  MBC: 250 ± 19 µM
[3]
  IC50: 1.6 ± 0.1 µM
[4]
  IC50: 2.8 ± 0.2 µM
[5]
  IC50: 1.2 ± 0.1 µM
[6]
  selectivity index (SI): 5.2
[7]; [29]
  selectivity index (SI): 1.6
[8]
  IC50: 2.3 ± 0.1 µM
[9]
  MIC: 1.9 ± 0.1 µM
  MBC: 250 ± 18 µM
[10]
  selectivity index (SI): 7.1
[11]
  IC50: 18.4 ± 1.3 µM
[12]
  IC50: 1.8 ± 0.2 µM
[13]; Pseudomonas aeruginosa
  MIC: 500 ± 47 µM
[13]; Pseudomonas aeruginosa, ATCC9027, read-out: Minimum bactericidal and fungicidal concentrations (MBC, MFC)
  MBC: 500 ± 48 µM
[14]
  IC50: 10 ± 0.9 µM
[15]
  selectivity index (SI): 4.3
[16]; Bacillus cereus
  MIC: 0.9 ± 0.07 µM
[16]; Bacillus cereus, read-out: Minimum bactericidal and fungicidal concentrations (MBC, MFC)
  MBC: 250 ± 22 µM
[17]
  IC50: 1.7 ± 0.1 µM
[18]
  selectivity index (SI): ns (ns—no selectivity)
[19]
  MIC: 0.9 ± 0.07 µM
  MBC: 62.5 ± 5.4 µM
[20]
  selectivity index (SI): 7.5
[21]
  MIC: 1.9 ± 0.1 µM
  MBC: 31.3 ± 2.5 µM
[22]; Candida albicans, ATCC10231, read-out: Minimum Inhibitory Concentration (MIC)
  MIC: 125 ± 11 µM
[22]; Candida albicans, ATCC10231, read-out: Minimum bactericidal and fungicidal concentrations (MBC, MFC)
  MBC: 250 ± 18 µM
[23]; Enterococcus faecalis
  MIC: 15.6 ± 1.3 µM
[23]; Enterococcus faecalis, ATCC29212, read-out: Minimum bactericidal and fungicidal concentrations (MBC, MFC)
  MBC: > 500 µM
[24]; [29]
  selectivity index (SI): 1.2
[25]; [29]
  selectivity index (SI): 6.7
[26]; [29]
  selectivity index (SI): 10
[27]
  IC50: 2.1 ± 0.2 µM

## CCCCCCCC[P+](c1ccccc1)(N(CC)CC)N(CC)CC [5b, Bis(diethylamino)(octyl)(phenyl)phosphonium iodide]
[1]
  selectivity index (SI): 1.5
[2]
  Minimum Inhibitory Concentration (MIC): –
[2]; Escherichia coli
  MBC: 500 ± 49 µM
[3]
  IC50: 1.2 ± 0.1 µM
[4]
  IC50: 4 ± 0.3 µM
[5]
  IC50: 2 ± 0.1 µM
[6]
  selectivity index (SI): 1.4
[7]; [28]
  selectivity index (SI): ns (ns—no selectivity)
[8]
  IC50: 2.9 ± 0.3 µM
[9]
  MIC: 15.6 ± 1.2 µM
  MBC: 250 ± 20 µM
[10]
  selectivity index (SI): 2.2
[11]
  IC50: 20 ± 1.6 µM
[12]
  IC50: 4.3 ± 0.3 µM
[13]
  Minimum bactericidal and fungicidal concentrations (MBC, MFC): –
[13]; Pseudomonas aeruginosa
  MIC: 500 ± 46 µM
[14]
  IC50: 25.6 ± 1.8 µM
[15]
  selectivity index (SI): 1.0
[16]; Bacillus cereus
  MIC: 7.8 ± 0.6 µM
[16]
  Minimum bactericidal and fungicidal concentrations (MBC, MFC): –
[17]
  IC50: 1.8 ± 0.1 µM
[18]
  selectivity index (SI): ns (ns—no selectivity)
[19]
  MIC: 15.6 ± 1.2 µM
  MBC: 500 ± 48 µM
[20]
  selectivity index (SI): 3.3
[21]
  MIC: 7.8 ± 0.6 µM
  MBC: 250 ± 20 µM
[22]
  Minimum Inhibitory Concentration (MIC): –
  Minimum bactericidal and fungicidal concentrations (MBC, MFC): –
[23]
  Minimum bactericidal and fungicidal concentrations (MBC, MFC): –
[23]; Enterococcus faecalis
  MIC: 125 ± 11 µM
[24]; [28]
  selectivity index (SI): ns (ns—no selectivity)
[25]; [29]
  selectivity index (SI): 1.0
[26]; [29]
  selectivity index (SI): 2.0
[27]
  IC50: 2.6 ± 0.2 µM
